Data taken from patent publication US20120196828A1, “SENSITIZATION OF CANCER CELLS TO TREATMENT” (priority 2011, published 2012).
“And” between values parts separate entries of the source, which are not always exact repeats. Identical values can stand only once.

Columns and labels:
[1] = tested on: metastatic gastric cancer; conditions: patients with metastatic gastric cancer; ODSH with mDCF
Procedure: Subjects included in the trial are: patients diagnosed with metastatic gastric, including cancer at the gastroesophageal junction. […] Subjects in each arm of the trial are evaluated for time to tumor progression, weight loss, pain control, six-month survival rates, and overall survival.

anti-thrombin III = anti-thrombin III (Homo sapiens, UniProt P01008); conditions: cited from earlier work
[2] = tested on: BxPC-3 Human Pancreas Tumor Xenograft; assay: BxPC-3 human pancreas tumor xenograft model: tumor weight and tumor growth inhibition; format: in vivo, mouse
Procedure: Compounds tested in the experiment were as follows. […] A concentration of 4.8 mg/ml was formulated to deliver a 24 mg/kg dose at a 5 ml/kg dose volume when administered subcutaneously. […] Nab-paclitaxel was manufactured by Abraxis BioScience LLC (Bridgewater, N.J.) and diluted in a 0.9% NaCl solution to a concentration of 1.5 mg/ml to deliver 15 mg/kg, in a 10 ml/kg dose volume. All standard agent preparations were made fresh prior to their administration.
BxPC-3 cells were obtained and prepared as follows. The BxPC-3 pancreas tumor cell line was received from American Type Culture Collection (ATCC, Manassas, Va.). Cultures were maintained in RPMI 1640 medium (Hyclone, Logan, Utah) supplemented with 5% fetal bovine serum. The cells were housed in a 5% CO2 atmosphere. The cultures were expanded in tissue culture flasks at a 1:3 split ratio until a sufficient amount of cells were harvested.
(§1) All experiments were conducted on female athymic nude mice (Hsd:Athymic Nude-Foxn1nu) supplied by Harlan (Indianapolis, Ind.). Mice were received at four weeks of age, 12-15 grams in weight, and were acclimated for seven days prior to handling. The mice were housed in microisolator cages (Lab Products, Seaford, Del.) and maintained under specific pathogen-free conditions. All procedures were carried out under appropriate institutional guidelines for animal care.
BxPC-3 Human Pancreas Tumor Xenograft Model: Female athymic nude mice per treatment condition were inoculated subcutaneously in the right flank with 0.1 ml of a 50% RPMI 1640/50% Matrigel™ (BD Biosciences, Bedford, Mass.) mixture containing a suspension of BxPC-3 tumor cells (approximately 5×10^6 cells/mouse).
(§2) Seven days following inoculation, tumors were measured using calipers and tumor weight was calculated using the animal study management software, Study Director V.1.7.54 k (Study Log). See Britten C D, et al. Enhanced antitumor activity of 6-hydroxymethylacylfulvene in combination with irinotecan and 5-fluorouracil in the HT29 human colon tumor xenograft model. Cancer Res 59:1049-1053, 1999. […] Body weights were recorded when the mice were randomized and were taken twice weekly thereafter in conjunction with tumor measurements, on each of Days 1, 4, 8, 11, 15, 18, 22, 26, 30, 33, and 36.
(§3) The study was terminated when the vehicle control reached an endpoint of 1500 mg, on Day 36.
Mean tumor growth inhibition (TGI) was calculated utilizing Formula A below (deaths were not included in the TGI calculations).
All statistical analyses in the xenograft study were performed with GraphPad Prism® v4 software.

[3] = tested on: metastatic pancreatic cancer; conditions: patients with metastatic pancreatic cancer; ODSH 4 mg/kg bolus then 0.375 mg/kg/hr infusion
Procedure: Subjects included in the trial are: patients diagnosed with metastatic pancreatic cancer. […] See also, Burris, H. A., et al., 1997, J. Clin. Oncol. 15(6):2403-13. […] J. Clin. Oncol. 30(1):15-20. Subjects in each arm of the trial are evaluated for time to tumor progression, weight loss, pain control, six-month survival rates, and overall survival.
Subjects included in the trial are: patients diagnosed with metastatic pancreatic cancer.
Next, 50 subjects are then randomly assigned to one of two arms: either a control or a treatment group.

[4] = Body weight, deaths and clinical observations in the BxPC-3 xenograft study
Procedure: as §1, §2, §3

[5] = target: Receptor for Advanced Glycation End products (RAGE) / HMGB1 (Homo sapiens, UniProt Q15109); conditions: Rao et al. 2010; WO 2009/015183; cited from earlier work
[6] = ANOVA with Tukey's Multiple Comparison Test

Chain of anti-thrombin III (P01008 33-464, species assumed): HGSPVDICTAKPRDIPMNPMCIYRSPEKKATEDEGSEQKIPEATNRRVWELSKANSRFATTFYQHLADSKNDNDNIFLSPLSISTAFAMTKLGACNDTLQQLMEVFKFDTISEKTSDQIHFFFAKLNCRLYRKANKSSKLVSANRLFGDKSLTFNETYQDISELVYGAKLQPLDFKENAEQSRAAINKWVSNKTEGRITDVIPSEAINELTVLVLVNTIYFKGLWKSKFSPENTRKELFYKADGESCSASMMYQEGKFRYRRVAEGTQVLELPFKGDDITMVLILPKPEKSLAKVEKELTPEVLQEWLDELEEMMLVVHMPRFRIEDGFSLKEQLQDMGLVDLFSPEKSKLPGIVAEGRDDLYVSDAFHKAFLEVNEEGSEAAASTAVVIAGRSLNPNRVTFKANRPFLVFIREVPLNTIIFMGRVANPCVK
Chain of Receptor for Advanced Glycation End products (RAGE) / HMGB1 (Q15109 23-344 limits assumed, species assumed): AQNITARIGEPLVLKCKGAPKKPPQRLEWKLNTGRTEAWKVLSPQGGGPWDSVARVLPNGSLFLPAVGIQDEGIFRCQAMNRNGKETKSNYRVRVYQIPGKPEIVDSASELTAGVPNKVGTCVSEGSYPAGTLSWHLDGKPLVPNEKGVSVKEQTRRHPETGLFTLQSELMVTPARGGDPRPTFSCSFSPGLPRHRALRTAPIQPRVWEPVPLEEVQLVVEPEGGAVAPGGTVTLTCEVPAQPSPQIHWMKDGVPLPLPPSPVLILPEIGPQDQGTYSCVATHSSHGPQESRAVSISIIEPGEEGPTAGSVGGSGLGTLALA

2-O, 3-O desulfated heparin [ODSH]
Therapeutic benefit of addition of ODSH to chemotherapy in gastric cancer [1]: therapeutic benefit | Kd (anti-thrombin III): ~339 µM | Kd for anti-thrombin III (anti-thrombin III): ~4000 µg/mL | Difference in tumor weight on Day 26 compared to vehicle control [2, 6]: No significant difference | Difference in tumor weight on Day 36 compared to vehicle control [2, 6]: No significant difference | Mean tumor weight, Day 1 ([2]; Day 1 (randomization), group mean, dosing per Table 1): 122.4 mg | Median tumor weight, Day 1 ([2]; Day 1 (randomization), group median, dosing per Table 1): 22.9 mg | Tumor weight, individual mouse, Day 1 ([2]; Day 1 (randomization), individual mouse, dosing per Table 1 (ODSH 24, oxaliplatin 10, gemcitabine 80, nab-paclitaxel 15 mg/kg)): 140 mg and 116 mg and 172 mg and 94 mg and 131 mg and 106 mg and 125 mg and 143 mg and 129 mg | Mean tumor weight, Day 4 ([2]; Day 4, group mean, dosing per Table 1): 134.0 mg | Median tumor weight, Day 4 ([2]; Day 4, group median, dosing per Table 1): 28.6 mg | Tumor weight, individual mouse, Day 4 ([2]; Day 4, individual mouse, dosing per Table 1): 162 mg and 98 mg and 110 mg and 141 mg and 97 mg and 181 mg and 135 mg and 130 mg and 144 mg and 133 mg | Mean tumor weight, Day 8 ([2]; Day 8, group mean, dosing per Table 1): 146.0 mg | Median tumor weight, Day 8 ([2]; Day 8, group median, dosing per Table 1): 40.4 mg | Tumor weight, individual mouse, Day 8 ([2]; Day 8, individual mouse, dosing per Table 1): 218 mg and 118 mg and 144 mg and 183 mg and 125 mg and 222 mg and 126 mg and 155 mg and 157 mg and 148 mg | Mean tumor weight, Day 11 ([2]; Day 11, group mean, dosing per Table 1): 187.6 mg | Median tumor weight, Day 11 ([2]; Day 11, group median, dosing per Table 1): 162.1 mg | Tumor weight, individual mouse, Day 11 ([2]; Day 11, individual mouse, dosing per Table 1): 149 mg and 288 mg and 142 mg and 175 mg and 243 mg and 146 mg and 252 mg and 137 mg and 140 mg and 203 mg | Mean tumor weight, Day 15 ([2]; Day 15, group mean, dosing per Table 1): 263.0 mg | Median tumor weight, Day 15 ([2]; Day 15, group median, dosing per Table 1): 250.0 mg | Tumor weight, individual mouse, Day 15 ([2]; Day 15, individual mouse, dosing per Table 1): 206 mg and 340 mg and 224 mg and 263 mg and 348 mg and 237 mg and 321 mg and 208 mg and 218 mg and 264 mg | Mean tumor weight, Day 18 ([2]; Day 18, group mean, dosing per Table 1): 338.5 mg | Median tumor weight, Day 18 ([2]; Day 18, group median, dosing per Table 1): 304.7 mg | Tumor weight, individual mouse, Day 18 ([2]; Day 18, individual mouse, dosing per Table 1): 278 mg (2×) and 489 mg and 291 mg and 288 mg and 419 mg and 256 mg and 415 mg and 318 mg and 352 mg | Mean tumor weight, Day 22 ([2]; Day 22, group mean, dosing per Table 1): 453.8 mg | Median tumor weight, Day 22 ([2]; Day 22, group median, dosing per Table 1): 425.4 mg | Tumor weight, individual mouse, Day 22 ([2]; Day 22, individual mouse, dosing per Table 1): 358 mg and 622 mg and 360 mg and 400 mg and 556 mg and 402 mg and 551 mg and 449 mg and 326 mg and 515 mg | Mean tumor weight, Day 26 ([2]; Day 26, group mean, dosing per Table 1): 616.2 mg | Median tumor weight, Day 26 ([2]; Day 26, group median, dosing per Table 1): 551.3 mg | Tumor weight, individual mouse, Day 26 ([2]; Day 26, individual mouse, dosing per Table 1): 509 mg and 894 mg and 478 mg and 529 mg and 770 mg and 573 mg and 724 mg and 524 mg and 394 mg and 766 mg | Day 26 Tumor Weight ([2]; Day 26, mean ± Std Err, treatment administered until Day 26): 616.2 ± 50.9 mg | Day 26 % TGI ([2]; Day 26 vs Day 1, relative to vehicle control (Group 1), deaths not included): 11.5% and 11.5 (10/10) % | Mean tumor weight, Day 30 ([2]; Day 30, group mean of surviving mice, dosing per Table 1): 882.3 mg | Median tumor weight, Day 30 ([2]; Day 30, group median, dosing per Table 1): 856.4 mg | Tumor weight, individual mouse, Day 30 ([2]; Day 30, individual mouse, dosing per Table 1): 697 mg and 1,083 mg and 756 mg and 893 mg and 1,201 mg and 820 mg and 945 mg and 764 mg and 555 mg and 1,109 mg | Mean tumor weight, Day 33 ([2]; Day 33, group mean of surviving mice, dosing per Table 1): 1,038.6 mg | Median tumor weight, Day 33 ([2]; Day 33, group median, dosing per Table 1): 979.8 mg | Tumor weight, individual mouse, Day 33 ([2]; Day 33, individual mouse, dosing per Table 1): 908 mg and 1,218 mg and 999 mg and 961 mg (2×) and 1,309 mg and 1,087 mg and 871 mg and 733 mg and 1,340 mg | Day 36 Tumor Weight ([2]; Day 36, treatment administered until Day 35): 1270.1 ± 95.5 mg | Median tumor weight, Day 36 ([2]; Day 36, group median, dosing per Table 1): 1,151.5 mg | Tumor weight, individual mouse, Day 36 ([2]; Day 36, individual mouse, dosing per Table 1): 1,072 mg and 1,450 mg and 1,153 mg and 1,150 mg (2×) and 1,654 mg and 1,376 mg and 1,037 mg and 836 mg and 1,823 mg | Day 36 % TGI ([2]; Day 36 vs Day 1, relative to vehicle control (Group 1), deaths not included): 18.2% | Overall antitumor effect (summary statement) ([2]; xenograft model of human pancreatic cancer): inhibits tumor growth to a similar extent as treatment with gemcitabine | Therapeutic benefit of addition of ODSH to chemotherapy in pancreatic cancer [3]: therapeutic benefit | Day 1 Average Weight ([4]; Day 1): 21.54 g | Day 4 Average Weight ([4]; Day 4): 21.18 g | Day 4 % Weight Loss or Gain ([4]; Day 4, vs starting weight): −1.67% | Day 8 Average Weight ([4]; Day 8): 21.18 g | Day 8 % Weight Loss or Gain ([4]; Day 8, vs starting weight): −1.67% | Day 11 Average Weight ([4]; Day 11): 20.95 g | Day 11 % Weight Loss or Gain ([4]; Day 11, vs starting weight): −2.74% | Day 15 Average Weight ([4]; Day 15): 21.08 g | Day 15 % Weight Loss or Gain ([4]; Day 15, vs starting weight): −2.14% | Day 18 Average Weight ([4]; Day 18): 21.04 g | Day 18 % Weight Loss or Gain ([4]; Day 18, vs starting weight): −2.32% | Day 22 Average Weight ([4]; Day 22): 22.53 g | Day 22 Average Weight ([4]; Day 22 (Table 12)): 21.56 g | Day 22 % Weight Loss or Gain ([4]; Day 22 (Table 12), vs starting weight): 0.09% | Day 22 % Weight Loss or Gain ([4]; Day 22, vs starting weight): 4.60% | Day 26 Average Weight ([4]; Day 26 (Table 12)): 22.14 g | Day 26 % Weight Loss or Gain ([4]; Day 26 (Table 12), vs starting weight): 2.79% | Day 30 % Weight Loss or Gain ([4]; Day 30, vs starting weight, groups 3 and 5 switched regimen from Day 26): 4.92% | Day 30 Average Weight ([4]; Day 30, groups 3 and 5 switched to gemcitabine + nab-paclitaxel regimen from Day 26): 22.60 g | Day 26 Average Weight ([4]; Table 13 Day 26): 22.46 g | Day 26 % Weight Loss or Gain ([4]; Table 13 Day 26, vs starting weight): 4.27% | Tolerability / toxicity of the regimen ([4]; athymic nude mice, dosing per Table 1): well-tolerated | Starting Weight ([4]; baseline body weight, female athymic nude mice, BxPC-3 xenograft study): 21.54 g | Maximum weight loss ([4]; body weight of mice): 2.7% | Day bruising of the abdomens was first observed ([4]; mouse, in vivo): 15 days | Day bruising of the tails was first observed ([4]; mouse, in vivo): 8 days | Day by which the mice recovered their weight ([4]; mouse, in vivo): ≤ 22 days | Day on which maximum weight loss was reached ([4]; mouse, in vivo): 11 days | Day swelling of the tail was first observed ([4]; mouse, in vivo): 11 days | Mice demonstrating bruising on the tails or abdomen (site of injection) ([4]; of ten mice): All ten | Mice demonstrating swelling of the tail ([4]; of ten mice): One of the ten | Deaths ([4]; total deaths on or before Day 26, N = 10 per group): 0 | Deaths ([4]; total deaths on or before Day 36, n = 10 per group): 0 | Binding of RAGE by HMGB1 and other RAGE ligands [5]: inhibit binding
